According to PubChem BioAssay (NCI):
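Protocol summary: plate cells (96-well), add compound at 5 concentrations, incubate 48 h, interpolate endpoints linearly. The concentration for 50% growth inhibition is given as GI50. TGI is the concentration that stops growth completely.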

Legend:
Test in all cases: growth of human tumour cells (NCI), 48 h
[1] = tested on: NCI-H226 lung
[2] = tested on: NCI-H460 lung
[3] = tested on: NCI-H522 lung
[4] = tested on: NCI/ADR-RES ovarian
[5] = tested on: OVCAR-3 ovarian
[6] = tested on: OVCAR-4 ovarian
[7] = tested on: OVCAR-5 ovarian
[8] = tested on: OVCAR-8 ovarian
[9] = tested on: PC-3 prostate
[10] = tested on: RPMI-8226 leukemia
[11] = tested on: RXF 393 renal
[12] = tested on: SF-268 CNS
[13] = tested on: SF-295 CNS
[14] = tested on: SF-539 CNS
[15] = tested on: SK-MEL-2 melanoma
[16] = tested on: SK-MEL-28 melanoma
[17] = tested on: SK-MEL-5 melanoma
[18] = tested on: SK-OV-3 ovarian
[19] = tested on: SN12C renal
[20] = tested on: SNB-19 CNS
[21] = tested on: SNB-75 CNS
[22] = tested on: SR leukemia
[23] = tested on: SW-620 colon
[24] = tested on: T-47D breast
[25] = tested on: TK-10 renal
[26] = tested on: U251 CNS
[27] = tested on: UACC-257 melanoma
[28] = tested on: UACC-62 melanoma
[29] = tested on: UO-31 renal

## CNC(=O)c1cc(-c2ccc(NC(=O)Nc3ccc(N4CCN(C)CC4)c(C(F)(F)F)c3)cc2)nc2cccnc12
[1]
  TGI: 39.7 µM
[2]
  GI50: 3.19 µM
  TGI: 10.2 µM
[3]
  GI50: 16.5 µM
  TGI: 31.1 µM
[4]
  GI50: 14.2 µM
  TGI: 45.4 µM
[5]
  GI50: 9.59 µM
  TGI: 25.8 µM
[6]
  GI50: 15.7 µM
  TGI: 31.6 µM
[7]
  GI50: 15.6 µM
  TGI: 29 µM
[8]
  GI50: 17.4 µM
  TGI: 35.4 µM
[9]
  GI50: 15.1 µM
  TGI: 30.1 µM
[10]
  GI50: 3.85 µM
  TGI: 25 µM
[11]
  GI50: 3.38 µM
  TGI: 15 µM
[12]
  GI50: 17.5 µM
  TGI: 39.2 µM
[13]
  GI50: 18 µM
  TGI: 36.9 µM
[14]
  GI50: 13.6 µM
  TGI: 26.5 µM
[15]
  GI50: > 100 µM
  TGI: > 100 µM
[16]
  GI50: 1.67 µM
  TGI: 3.11 µM
[17]
  GI50: 17.5 µM
  TGI: 31.7 µM
[18]
  GI50: 18.5 µM
  TGI: 34.7 µM
[19]
  GI50: 16.7 µM
  TGI: 34.7 µM
[20]
  GI50: 16.9 µM
  TGI: 33.2 µM
[21]
  GI50: 14.9 µM
  TGI: 28.4 µM
[22]
  GI50: 9.97 µM
  TGI: 44.6 µM
[23]
  GI50: 2.11 µM
  TGI: 4.62 µM
[24]
  GI50: 17 µM
  TGI: 43.4 µM
[25]
  GI50: 18.5 µM
  TGI: 33.3 µM
[26]
  GI50: 3.43 µM
  TGI: 14.7 µM
[27]
  GI50: 15.3 µM
  TGI: 28.8 µM
[28]
  GI50: 18.4 µM
  TGI: 33.9 µM
[29]
  GI50: 15.3 µM
  TGI: 29.2 µM
